Tests used:
Eimeria tenella [1] = assay: Anticoccidial activity in chickens inoculated with Eimeria tenella (Example 12); format: in vivo, chicken; settings: for Cecal bleeding associated with E. tenella infections: 80 gram per ton; for weight gains compared with those of test compound 5 and lasalocid: 80 gram per ton (lasalocid 24 gram per ton)
Protocol: (§1) This example describes experimental testing of complexes of this invention for anticoccidial activity. Anticoccidial activities of test compounds were determined by administering the compounds (in feed) to chickens inoculated with active oocysts of Eimeria tenella. The test compounds, which are listed in Table 1 below, included four bacitracin-metal-polyether antibiotic complexes prepared according to the procedures described above. In addition, sodium lysocellin, regular bacitracin, sodium monensin, sodium lasolocid, and unmedicated inoculated and noninoculated controls were included for comparative purposes.
(§2) The test animals were Hubbard White Mountain male chicken (broiler strain) that were 5 days old at the beginning of the test. Each experimental compound was administered in a chick starter diet (Table 2) at a level of 80 g/ton and 120 g/ton. At 7 days of age, chicks were individually weighed, banded, and started on their respective treatments. Each treatment was replicated three times with five birds per replicate for a total of 15 birds per group. The test period was 10 days.
Seventy-two hours after the initiation of medication, birds were reweighed and orally inoculated with approximately 100,000 Eimeria tenella oocysts suspended in a 1 cc dose of saline. The following criteria were then evaluated over the next seven days:
A satisfactory challenge was obtained with Eimeria tenella.

buffered rumen fluid = assay: Rumen screen, in vitro ruminal volatile fatty acid ratio (Examples 15, 16); format: cell-based, steer; settings: 10 ppm, Neg. Control 1.39
Protocol: Rumen fluid was removed from a fistulated steer and strained through a cheesecloth. An equal amount of pH 7 buffer was added to strained rumen fluid. After layering occurred, the lower layer was saved and again diluted with equal amount of buffer. Ten ml. portions of buffered rumen fluid were added to fermentation vessels containing 500 mg. fresh finely ground cattle ration, 1 mg cellubiose and a test compound listed in Table 1 below at the indicated concentration. The fermentation vesels were outfitted with one-way gas valves, placed in an incubator and shaken for 24 hours at 38° C. Fermentation was stopped by addition of 1 ml mercuric chloride. The liquid was decanted and analyzed for volatile fatty acids by gas chromatography. Test results are summarized in Table 1, wherein Bac=bacitracin.
The procedures of Example 15 were repeated in all essential details with the test compounds and concentrations listed in Table 1 below, as are the results of the test.

Eimeria tenella [2] = assay: Anticoccidial activity in chickens inoculated with Eimeria tenella oocysts (Example 11); format: in vivo; settings: for Incidence of Bloody Droppings / Morbidity: 4th-6th day; for Morbidity: birds affected/birds in group; for Mortality: 4th-7th day, birds dead/birds in group; for F/G Day 0-3 / F/G Day 4-10: feed per gain
Protocol: as §1, §2
Seventy-two hours after the initiation of medication, birds were reweighed and orally inoculated with approximately 100,000 Eimeria tenella oocysts suspended in a 1 cc dose of saline. The following criteria were then evaluated over the next seven days: […]
a. morbidity (4th-6th day) b. mortality (4th-7th day) c. incidence of bloody droppings (4th-6th day)

[3] = Weight gain and feed utilization efficiency in chicks, 11 days (Example 13); format: in vivo, chicken; parameters: key to Average Weight: average weight in grams; settings: .00275% in rye basal diet
Protocol: (§3) This example describes experimetnal testing of complexes of the present invention as feed additives for improving weight gain or feed utilization efficiency in birds. Test animals were male meat-type chickens (Hubbard strain). Fluorescent room lights were on a 16 hours light/8 hours dark schedule. The chicks were allotted to the pens on the basis of weight classes, and chicks in the even numbered pens were wing banded. Group weights were obtained at the start and individual weights at the termination of the experiment. Chicks weighing between 55 and 65 grams were selected for the test. The test compounds were blended with a basal feed ration (shown in Table 2) at the indicated concentration. Birds fed […] and feed supplemented with zinc bacitracin (Baciferm® 50, International Minerals and Chemical Corp.) were used as controls. The test was continued for 11 days, after which individual weights, pen weight and feed consumption were recorded and analyzed.

[4] = Weight gain and feed utilization in chicks, 12 days (Example 14); format: in vivo, chicken; settings: .0066% in feed
Protocol: as §3
All of the bacitracin-metal-polyether antibiotic complexes tested produced statistically significant increases in gains compared to the unmedicated basal ration.
The test involving test compounds 1 and 3-14 consisted of 5 replicates of 7 chicks and those involving test compound 2 consisted of 6 replicates of 7 chicks. The tests were continued for 12 days, after which individual weight gains and feed conusumption were recorded and analyzed.

[5] = 14 g/ton Lasalocid (Approx.), regrouped part of Table 2
[6] = 36 g/ton Lasalocid (Approx.), regrouped part of Table 2

## Bacitracin-Cobalt-Lysocellin Complex [Example 1]
Eimeria tenella [1]; [5]
  Cecal Bleeding: Severe
  Gain/Bird Days 0-3: 61.6
  Gain/Bird Days 4-10: 180.1
Eimeria tenella [1]; [6]
  Cecal Bleeding: Slight
  Feed/Gain Days 0-3: 1.65
  Gain/Bird Days 0-3: 59.0
  Gain/Bird Days 4-10: 188.4
Eimeria tenella [1]; 80 g/ton in feed
  Incidence of Bloody Droppings: Severe
  Morbidity: 6/15
  Mortality: 0/15
  F/G Day 0-3: 1.62
  Gain/Bird Grams Day 0-3: 61.6 Grams
  F/G Day 4-10: 1.86
  Gain/Bird Grams Day 4-10: 180.1 Grams
Eimeria tenella [1]
  Cecal bleeding associated with E. tenella infections: severe
  weight gains compared with those of test compound 5 and lasalocid: appreciably higher
Eimeria tenella [1]; 120 g/ton in feed
  Incidence of Bloody Droppings: Slight-
  Morbidity: 4/15
  Mortality: 0/15
  F/G Day 0-3: 1.64
  Gain/Bird Grams Day 0-3: 59.0 Grams
  F/G Day 4-10: 1.78
  Gain/Bird Grams Day 4-10: 188.4 Grams
Eimeria tenella [1]; 120 grams per ton
  anticoccidial activity (in words): good anticoccidial activity
Buffered rumen fluid; Example 15, 24 hours at 38° C.
  A/P Ratio: 1.10
Eimeria tenella [2]; 80 g/ton in feed
  Incidence of Bloody Droppings: Severe
  Morbidity: 10/15
  Mortality: 0/15
  Gain, Grams Day 0-3: 58.4 Grams
  Gain, Grams Day 4-10: 196.5 Grams
  F/G Day 0-3: 1.75
  F/G Day 4-10: 1.71
Eimeria tenella [2]; 120 g/ton in feed
  Incidence of Bloody Droppings: Moderate
  Morbidity: 4/15
  Mortality: 0/15
  Gain, Grams Day 0-3: 54.1 Grams
  Gain, Grams Day 4-10: 209.1 Grams
  F/G Day 0-3: 1.81
  F/G Day 4-10: 1.66

## Bacitracin-Nickel-Lysocellin Complex [Example 4]
Eimeria tenella [1]; [5]
  Cecal Bleeding: Severe
  Gain/Bird Days 0-3: 63.3
  Gain/Bird Days 4-10: 164.1
Eimeria tenella [1]; [6]
  Cecal Bleeding: Slight-Moderate
  Gain/Bird Days 0-3: 59.5
  Gain/Bird Days 4-10: 187.4
Eimeria tenella [1]; 80 g/ton in feed
  Incidence of Bloody Droppings: Severe
  Morbidity: 9/15
  Mortality: 0/15
  F/G Day 0-3: 1.61
  Gain/Bird Grams Day 0-3: 63.3 Grams
  F/G Day 4-10: 1.91
  Gain/Bird Grams Day 4-10: 164.1 Grams
Eimeria tenella [1]
  Cecal bleeding associated with E. tenella infections: severe
  weight gains compared with those of test compound 5 and lasalocid: appreciably higher
Eimeria tenella [1]; 120 g/ton in feed
  Morbidity: 5/15
  Mortality: 0/15
  F/G Day 0-3: 1.69
  Gain/Bird Grams Day 0-3: 59.5 Grams
  F/G Day 4-10: 1.72
  Gain/Bird Grams Day 4-10: 187.4 Grams
[3]; 11 days
  Average Gain: 217 g
  Gain/Feed Ratio: 62.8
[3]; Table 4
  Average Weight: 277.0
  Gain/Feed: 62.8
[3]; unmedicated = 100
  Average Gain Index: 105.4
  Gain/Feed Ratio Index: 98.5
Buffered rumen fluid; Example 15, 24 hours at 38° C.
  A/P Ratio: 1.10
Buffered rumen fluid; Example 16
  A/P Ratio: .88
Eimeria tenella [2]; 80 and 120 g/ton
  protection against cecal bleeding: only fair
Eimeria tenella [2]; 80 and 120 g/ton, this test
  bleeding: slight bleeding
Eimeria tenella [2]; 80 and 120 g/ton, mild E. tenella challenge
  anticoccidial activity (in words): performed well
Eimeria tenella [2]; 80 g/ton in feed
  Incidence of Bloody Droppings: Slight
  Morbidity: 2/15
  Mortality: 0/15
  Gain, Grams Day 0-3: 60.8 Grams
  Gain, Grams Day 4-10: 229.1 Grams
  F/G Day 0-3: 1.70
  F/G Day 4-10: 1.59
Eimeria tenella [2]; 120 g/ton in feed
  Incidence of Bloody Droppings: Slight
  Morbidity: 1/15
  Mortality: 1/15
  Gain, Grams Day 0-3: 58.6 Grams
  Gain, Grams Day 4-10: 227.7 Grams
  F/G Day 0-3: 1.70
  F/G Day 4-10: 1.59
Eimeria tenella [2]; 200 g/ton, in C-760 (another test)
  bleeding: no bleeding
[4]; 12 days
  Gain/Feed Data: .585
  Gains/gram Data: 197.2 gram
[4]; #1 = unmedicated
  Gain/Feed Index Relative to #1: 103.9
  Gains Index Relative to #1: 106.5
[4]; #2 = zinc bacitracin
  Gain/Feed Index Relative to #2: 98.2
  Gains Index Relative to #2: 94.1
